Results: US8404679B2, “Pyrrolidine derivatives as NK2 receptor antagonists” (Hoffmann-La Roche Inc., priority 2008, dated 2013)

Molecular target: T1, human NK2 receptor (Homo sapiens, UniProt P21452)
T1 construct: purchased Perkin Elmer biosignal Inc. 6110510
T1 sequence (P21452 1-398): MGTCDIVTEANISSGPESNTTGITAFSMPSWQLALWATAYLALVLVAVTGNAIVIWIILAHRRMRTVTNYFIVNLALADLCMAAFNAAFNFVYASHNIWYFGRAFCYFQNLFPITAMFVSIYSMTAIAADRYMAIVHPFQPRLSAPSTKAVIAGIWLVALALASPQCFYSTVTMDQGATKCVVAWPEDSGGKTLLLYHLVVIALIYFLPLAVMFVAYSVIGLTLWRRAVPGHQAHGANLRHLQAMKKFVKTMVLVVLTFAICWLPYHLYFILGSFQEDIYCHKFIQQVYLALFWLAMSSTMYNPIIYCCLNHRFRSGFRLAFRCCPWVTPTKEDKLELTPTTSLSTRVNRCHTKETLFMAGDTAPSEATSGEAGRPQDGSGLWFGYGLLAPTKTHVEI
Experiment: [3H]SR48968 competition binding assay
Settings: [3H]SR48968 displacement, membranes of CHO cells stably expressing recombinant human NK2 receptor; Ki from IC50 by Cheng-Prussoff
In short: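 Membranes from CHO cells stably expressing recombinant human NK2 were incubated 75 min at RT with [3H]SR48968 at its KD and 10 compound concentrations (0.0003–10 μM) in Tris-HCl pH 7.4, MnCl2, chymostatin, BSA. Filter-bound radioactivity was counted; Hill-fitted IC50 converted to Ki via Cheng-Prusoff.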

Compound	Ki [nM]
COc1ccc(C(=O)N(C)[C@H]2CN(C(=O)C3CCN(CC4CC4)CC3)C[C@@H]2c2ccc(Cl)cc2)cc1C(F)(F)F (racemic) [Example 105, N-[(3RS,4SR)-4-(4-Chloro-phenyl)-1-(1-cyclopropylmethyl-piperidine-4-carbonyl)-pyrrolidin-3-yl]-4-methoxy-N-methyl-3-trifluoromethyl-benzamide]	0.8
CN(C(=O)c1ccc(Cl)cn1)[C@H]1CN(C(=O)C2CCN(C(=O)C3(C)CC3)CC2)C[C@@H]1c1ccc(Cl)c(Cl)c1 (racemic) [Example 108, 5-Chloro-pyridine-2-carboxylic acid {(3RS,4SR)-4-(3,4-dichloro-phenyl)-1-[1-(1-methyl-cyclopropanecarbonyl)-piperidine-4-carbonyl]-pyrrolidin-3-yl}-methyl-amide]	2.6
CN(C(=O)c1ccc(F)c(C#N)c1)[C@H]1CN(C(=O)C2CCN(C(=O)C3(C)CC3)CC2)C[C@@H]1c1ccc(Cl)c(Cl)c1 (racemic) [Example 109, 3-Cyano-N-{(3RS,4SR)-4-(3,4-dichloro-phenyl)-1-[1-(1-methyl-cyclopropanecarbonyl)-piperidine-4-carbonyl]-pyrrolidin-3-yl}-4-fluoro-N-methyl-benzamide]	0.8
COc1ccc(C(=O)N(C)[C@H]2CN(C(=O)C3CCN(CCC(F)(F)F)CC3)C[C@@H]2c2ccc(Cl)cc2)cc1C(F)(F)F (racemic) [Example 110, N-{(3RS,4SR)-4-(4-Chloro-phenyl)-1-[1-(3,3,3-trifluoro-propyl)-piperidine-4-carbonyl]-pyrrolidin-3-yl}-4-methoxy-N-methyl-3-trifluoromethyl-benzamide]	0.8
COc1ccc(C(=O)N(C)[C@H]2CN(C(=O)C3CCN(CCC(C)(C)C)CC3)C[C@@H]2c2ccc(Cl)cc2)cc1C(F)(F)F (racemic) [Example 111, N-{(3RS,4SR)-4-(4-Chloro-phenyl)-1-[1-(3,3-dimethyl-butyl)-piperidine-4-carbonyl]-pyrrolidin-3-yl}-4-methoxy-N-methyl-3-trifluoromethyl-benzamide]	0.7
CN(C(=O)CC1CCCC1)[C@H]1CN(C(=O)C2CCN(C(=O)C3(C)CC3)CC2)C[C@@H]1c1ccc(Cl)c(Cl)c1 (racemic) [Example 113, 2-Cyclopentyl-N-{(3RS,4SR)-4-(3,4-dichloro-phenyl)-1-[1-(1-methyl-cyclopropanecarbonyl)-piperidine-4-carbonyl]-pyrrolidin-3-yl}-N-methyl-acetamide]	2.9
CN(C(=O)CCC1CC1)[C@H]1CN(C(=O)C2CCN(C(=O)C3(C)CC3)CC2)C[C@@H]1c1ccc(Cl)c(Cl)c1 (racemic) [Example 114, 3-Cyclopropyl-N-{(3RS,4SR)-4-(3,4-dichloro-phenyl)-1-[1-(1-methyl-cyclopropanecarbonyl)-piperidine-4-carbonyl]-pyrrolidin-3-yl}-N-methyl-propionamide]	17.2
CN(C(=O)CC(C)(C)C)[C@H]1CN(C(=O)C2CCN(C(=O)C3(C)CC3)CC2)C[C@@H]1c1ccc(Cl)c(Cl)c1 (racemic) [Example 115, N-{(3RS,4SR)-4-(3,4-Dichloro-phenyl)-1-[1-(1-methyl-cyclopropanecarbonyl)-piperidine-4-carbonyl]-pyrrolidin-3-yl}-3,3,N-trimethyl-butyramide]	23
CC(C)C(C(=O)N(C)[C@H]1CN(C(=O)C2CCN(C(=O)C3(C)CC3)CC2)C[C@@H]1c1ccc(Cl)c(Cl)c1)c1ccc(F)cc1 (mixture of isomers) [Example 116, N-{(3RS,4SR)-4-(3,4-Dichloro-phenyl)-1-[1-(1-methyl-cyclopropanecarbonyl)-piperidine-4-carbonyl]-pyrrolidin-3-yl}-2-(4-fluoro-phenyl)-3,N-dimethyl-butyramide]	49.7
COc1ccc(C(=O)N(C)[C@H]2CN(C(=O)C3CCN(CC(C)(C)C)CC3)C[C@@H]2c2ccc(Cl)cc2)cc1C(F)(F)F (racemic) [Example 120, N-{(3RS,4SR)-4-(4-Chloro-phenyl)-1-[1-(2,2-dimethyl-propyl)-piperidine-4-carbonyl]-pyrrolidin-3-yl}-4-methoxy-N-methyl-3-trifluoromethyl-benzamide]	0.8
CCN1CCC(C(=O)N2C[C@H](c3ccc(Cl)cc3)[C@@H](N(C)C(=O)c3ccc(OC)c(C(F)(F)F)c3)C2)CC1 (racemic) [Example 121, N-[(3RS,4SR)-4-(4-Chloro-phenyl)-1-(1-ethyl-piperidine-4-carbonyl)-pyrrolidin-3-yl]-4-methoxy-N-methyl-3-trifluoromethyl-benzamide]	5.1
COc1ccc(C(=O)N[C@H]2CN(C(=O)C3CCN(C(=O)C4(C)CC4)CC3)C[C@@H]2c2ccc(Cl)cc2C)cc1C(F)(F)F (racemic) [Example 122, N-{(3RS,4SR)-4-(4-Chloro-2-methyl-phenyl)-1-[1-(1-methyl-cyclopropanecarbonyl)-piperidine-4-carbonyl]-pyrrolidin-3-yl}-4-methoxy-3-trifluoromethyl-benzamide]	82
CN(C(=O)CC1CCOCC1)[C@H]1CN(C(=O)C2CCN(C(=O)C3(C)CC3)CC2)C[C@@H]1c1ccc(Cl)c(Cl)c1 (racemic) [Example 124, N-{(3RS,4SR)-4-(3,4-Dichloro-phenyl)-1-[1-(1-methyl-cyclopropanecarbonyl)-piperidine-4-carbonyl]-pyrrolidin-3-yl}-N-methyl-2-(tetrahydro-pyran-4-yl)-acetamide]	13
CN(C(=O)C(C)(C)c1ccc(F)cc1)[C@H]1CN(C(=O)C2CCN(C(=O)C3(C)CC3)CC2)C[C@@H]1c1ccc(Cl)c(Cl)c1 (racemic) [Example 125, N-{(3RS,4SR)-4-(3,4-Dichloro-phenyl)-1-[1-(1-methyl-cyclopropanecarbonyl)-piperidine-4-carbonyl]-pyrrolidin-3-yl}-2-(4-fluoro-phenyl)-N-methyl-isobutyramide]	67.9
COc1ccc(C(=O)N(C)[C@H]2CN(C(=O)C3CCN(CCCSC)CC3)C[C@@H]2c2ccc(Cl)cc2)cc1C(F)(F)F (racemic) [Example 126, N-{(3RS,4SR)-4-(4-Chloro-phenyl)-1-[1-(3-methylsulfanyl-propyl)-piperidine-4-carbonyl]-pyrrolidin-3-yl}-4-methoxy-N-methyl-3-trifluoromethyl-benzamide]	0.9
COC1CCC(C(=O)N2C[C@H](c3ccc(Cl)c(Cl)c3)[C@@H](N(C)C(=O)Cc3ccc(F)cc3)C2)CC1 (mixture of isomers) [Example 127, N-[(3RS,4SR)-4-(3,4-Dichloro-phenyl)-1-(4-methoxy-cyclohexanecarbonyl)-pyrrolidin-3-yl]-2-(4-fluoro-phenyl)-N-methyl-acetamide]	35
COc1ccc(C(=O)N(C)[C@H]2CN(C(=O)C3CCN(CCCS(C)(=O)=O)CC3)C[C@@H]2c2ccc(Cl)cc2)cc1C(F)(F)F (racemic) [Example 131, N-{(3RS,4SR)-4-(4-Chloro-phenyl)-1-[1-(3-methanesulfonyl-propyl)-piperidine-4-carbonyl]-pyrrolidin-3-yl}-4-methoxy-N-methyl-3-trifluoromethyl-benzamide]	0.1
COc1ccc(C(=O)N(C)[C@H]2CN(C(=O)C3CCN(C(=O)OC(C)(C)C)CC3)C[C@@H]2c2ccc(Cl)c(Cl)c2)cc1C(F)(F)F (racemic) [Example 132, 4-{(3SR,4RS)-3-(3,4-Dichloro-phenyl)-4-[(4-methoxy-3-trifluoromethyl-benzoyl)-methyl-amino]-pyrrolidine-1-carbonyl}-piperidine-1-carboxylic acid tert-butyl ester]	1.3
COc1ccc(C(=O)N(C)[C@H]2CN(C(=O)C3CCNCC3)C[C@@H]2c2ccc(Cl)c(Cl)c2)cc1C(F)(F)F (racemic) [Example 133, N-[(3RS,4SR)-4-(3,4-Dichloro-phenyl)-1-(piperidine-4-carbonyl)-pyrrolidin-3-yl]-4-methoxy-N-methyl-3-trifluoromethyl-benzamide]	0.2
CN(C(=O)Cc1ccc(F)cc1)[C@H]1CN(C(=O)c2ccc(N3CCOCC3)cc2)C[C@@H]1c1ccc(Cl)c(Cl)c1 (racemic) [Example 134, N-[(3RS,4SR)-4-(3,4-Dichloro-phenyl)-1-(4-morpholin-4-yl-benzoyl)-pyrrolidin-3-yl]-2-(4-fluoro-phenyl)-N-methyl-acetamide]	51.9
CN(C(=O)Cc1ccc(F)cc1)[C@H]1CN(C(=O)c2ccc(N3CCOCC3)nc2)C[C@@H]1c1ccc(Cl)c(Cl)c1 (racemic) [Example 135, N-[(3RS,4SR)-4-(3,4-Dichloro-phenyl)-1-(6-morpholin-4-yl-pyridine-3-carbonyl)-pyrrolidin-3-yl]-2-(4-fluoro-phenyl)-N-methyl-acetamide]	85.4
COc1ccc(C(=O)N(C)[C@H]2CN(C(=O)C3CCN(CC4CC4)CC3)C[C@@H]2c2ccc(Cl)c(Cl)c2)cc1C(F)(F)F (racemic) [Example 138, N-[(3RS,4SR)-1-(1-Cyclopropylmethyl-piperidine-4-carbonyl)-4-(3,4-dichloro-phenyl)-pyrrolidin-3-yl]-4-methoxy-N-methyl-3-trifluoromethyl-benzamide]	0.5
COc1ccc(C(=O)N(C)[C@H]2CN(C(=O)C3CCN(CCC(F)(F)F)CC3)C[C@@H]2c2ccc(Cl)c(Cl)c2)cc1C(F)(F)F (racemic) [Example 139, N-{(3RS,4SR)-4-(3,4-Dichloro-phenyl)-1-[1-(3,3,3-trifluoro-propyl)-piperidine-4-carbonyl]-pyrrolidin-3-yl}-4-methoxy-N-methyl-3-trifluoromethyl-benzamide]	0.6
